According to patent publication US7786163B2, “Constrained cyano compounds” (Forest Laboratories Holdings Limited (BM), priority 2004, dated 2010):
Structures can show the parent of a compound that is named as a salt.

Experiments:
Format in all cases: biochemical
human DPP-VII = molecular target: T1, human DPP-VII (Homo sapiens, UniProt Q9UHL4); assay: DPP-VII inhibition assay (Lys-Pro AMC), selectivity vs DPP-IV; conditions: selectivity for DPP-IV relative to DPP-VII
T1 construct: The full length cDNAs for human DPP-VII, DPP-VIII, DPP-IX, and FAP were obtained from Open Biosystems; FLAG (N); made in house; host or cells: S9 (Sf9) insect cells, baculovirus (pFastBac, Bac-to-Bac)
Procedure: (§1) Materials. S9 insect cells and Sf-900 II SFM media were from Invitrogen. Anti-FLAG M2 immunoaffinity gel was from Sigma. Gly-Pro-AMC, Lys-Pro AMC, and Ala-Pro AMC were from Enzyme Systems. IC50 calculations were performed by non-linear regression analysis using Prism software (GraphPad).
(§2) Preparation of DPP-VII DPP-VIII DPP-IX, and FAP baculovirus constructs. The full length cDNAs for human DPP-VII, DPP-VIII, DPP-IX, and FAP were obtained from Open Biosystems. The cDNAs were cloned into the pFastBac vector with the addition of an N-terminal FLAG tag on DPP-VII, C-terminal 6× His tags on DPP-VIII and DPP-IX, and an N-terminal 6× His tag on FAP (Sun 2002, Qi 2003, and Chen 2004). Baculovirus was prepared using the Bac-to-Bac Baculovirus Expression System (Invitrogen). The cDNAs in the final baculovirus constructs were sequence verified.
(§3) Baculovirus expression. S9 cells were grown to mid log phase at 27C with shaking at 125 RPM and then adjusted to 2×10E6/ml just prior to baculovirus infection. Infection with DPP-VII, DPP-VIII, DPP-IX, and FAP baculoviral constructs were all performed at an MOI of 4. The infected cells were grown for 48 hours and the cell pellets harvested and frozen until purification. DPP-VII was purified using anti-FLAG immunoaffinity gel according to the manufacturer's instructions. DPP-VIII, DPP-IX, and FAP were purified using a B-PER 6× His Fusion Protein Column Purification Kit from Pierce.
(§4) C50 assay. Recombinant DPPs were diluted in reaction buffer to give fluorescence values of 5000-20000 counts in the “enzyme only wells” 20 min after addition of substrate at 27° C. Reaction buffers were 25 mM (2-(4-Morpholino)-Ethane Sulfonic Acid), pH 5.5 for DPP-VII, 25 mM Tris, pH 8, 1% Triton X-100, 100 mM NaCl for DPP-VIII, and 25 mM Tris pH 8 for DPP-IX and FAP. Test wells in a 96-well microtiter plate contained 88 uL of diluted DPP and 2.5 ul of titrated compound in 50 mM glycine, pH 2.6. “Enzyme only” wells contained 88 uL of diluted DPP and 2.5 ul of glycine buffer. “No enzyme” wells contained 88 uL of reaction buffer without DPP and 2.5 ul of glycine buffer. All assays were done in triplicate. The plate was incubated at 27° C. for 10 min and then cooled on ice for 10 min. Ten microliters of substrate diluted in reaction buffer (40 uM final concentration) without Triton or NaCl were then added to all wells followed by incubation at 27C for 20 min. Substrates were Lys-Pro AMC for DPP-VII, and Ala-Pro AMC for DPP-VIII, DPP-IX, and FAP. Fluorescence in each well was measured at settings of 380/460 nm.
(§5) Compounds of the invention were tested for inhibition of DPP-IV according to Example 4 and DPP-VII, VIII, IX and FAP according to the present methods.

human DPP-VIII = molecular target: T2, human DPP-VIII (Homo sapiens, UniProt Q6V1X1); assay: DPP-VIII inhibition assay (Ala-Pro AMC), selectivity vs DPP-IV; conditions: selectivity for DPP-IV relative to DPP-VIII
T2 construct: The full length cDNAs for human DPP-VII, DPP-VIII, DPP-IX, and FAP were obtained from Open Biosystems; 6xHis (C); made in house; host or cells: S9 (Sf9) insect cells, baculovirus (pFastBac, Bac-to-Bac)
Procedure: as §1, §2, §3, §4, §5

human DPP-IX = molecular target: T3, human DPP-IX (Homo sapiens, UniProt Q86TI2); assay: DPP-IX inhibition assay (Ala-Pro AMC), selectivity vs DPP-IV; conditions: selectivity for DPP-IV relative to DPP-IX
T3 construct: The full length cDNAs for human DPP-VII, DPP-VIII, DPP-IX, and FAP were obtained from Open Biosystems; 6xHis (C); made in house; host or cells: S9 (Sf9) insect cells, baculovirus (pFastBac, Bac-to-Bac)
Procedure: as §1, §2, §3, §4, §5

human FAP = molecular target: T4, human FAP (Homo sapiens, UniProt Q12884); assay: FAP inhibition assay (Ala-Pro AMC), selectivity vs DPP-IV; conditions: selectivity for DPP-IV relative to FAP
T4 construct: The full length cDNAs for human DPP-VII, DPP-VIII, DPP-IX, and FAP were obtained from Open Biosystems; 6xHis (N); made in house; host or cells: S9 (Sf9) insect cells, baculovirus (pFastBac, Bac-to-Bac)
T4 sequence (Q12884 1-760): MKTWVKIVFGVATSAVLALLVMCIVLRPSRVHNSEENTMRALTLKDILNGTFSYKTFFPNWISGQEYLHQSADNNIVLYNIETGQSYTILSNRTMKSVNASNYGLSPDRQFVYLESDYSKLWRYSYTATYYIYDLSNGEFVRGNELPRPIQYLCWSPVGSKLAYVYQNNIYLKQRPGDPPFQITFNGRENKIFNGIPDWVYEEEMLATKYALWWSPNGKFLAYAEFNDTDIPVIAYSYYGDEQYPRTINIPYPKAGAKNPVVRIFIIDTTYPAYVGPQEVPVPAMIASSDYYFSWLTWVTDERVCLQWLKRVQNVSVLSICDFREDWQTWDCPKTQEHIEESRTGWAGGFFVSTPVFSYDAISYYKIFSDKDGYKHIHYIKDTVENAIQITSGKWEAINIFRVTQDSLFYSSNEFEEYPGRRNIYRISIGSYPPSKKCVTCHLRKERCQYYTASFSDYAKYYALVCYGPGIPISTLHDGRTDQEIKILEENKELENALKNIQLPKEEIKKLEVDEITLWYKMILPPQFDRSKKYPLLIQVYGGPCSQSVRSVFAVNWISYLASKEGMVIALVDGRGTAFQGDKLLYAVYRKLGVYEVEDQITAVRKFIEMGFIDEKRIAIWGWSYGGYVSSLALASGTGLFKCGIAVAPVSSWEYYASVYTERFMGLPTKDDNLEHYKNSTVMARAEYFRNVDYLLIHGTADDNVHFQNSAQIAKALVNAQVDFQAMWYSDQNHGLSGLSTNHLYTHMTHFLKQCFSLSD
Procedure: as §1, §2, §3, §4, §5

T2 sequence (Q6V1X1 whole entry): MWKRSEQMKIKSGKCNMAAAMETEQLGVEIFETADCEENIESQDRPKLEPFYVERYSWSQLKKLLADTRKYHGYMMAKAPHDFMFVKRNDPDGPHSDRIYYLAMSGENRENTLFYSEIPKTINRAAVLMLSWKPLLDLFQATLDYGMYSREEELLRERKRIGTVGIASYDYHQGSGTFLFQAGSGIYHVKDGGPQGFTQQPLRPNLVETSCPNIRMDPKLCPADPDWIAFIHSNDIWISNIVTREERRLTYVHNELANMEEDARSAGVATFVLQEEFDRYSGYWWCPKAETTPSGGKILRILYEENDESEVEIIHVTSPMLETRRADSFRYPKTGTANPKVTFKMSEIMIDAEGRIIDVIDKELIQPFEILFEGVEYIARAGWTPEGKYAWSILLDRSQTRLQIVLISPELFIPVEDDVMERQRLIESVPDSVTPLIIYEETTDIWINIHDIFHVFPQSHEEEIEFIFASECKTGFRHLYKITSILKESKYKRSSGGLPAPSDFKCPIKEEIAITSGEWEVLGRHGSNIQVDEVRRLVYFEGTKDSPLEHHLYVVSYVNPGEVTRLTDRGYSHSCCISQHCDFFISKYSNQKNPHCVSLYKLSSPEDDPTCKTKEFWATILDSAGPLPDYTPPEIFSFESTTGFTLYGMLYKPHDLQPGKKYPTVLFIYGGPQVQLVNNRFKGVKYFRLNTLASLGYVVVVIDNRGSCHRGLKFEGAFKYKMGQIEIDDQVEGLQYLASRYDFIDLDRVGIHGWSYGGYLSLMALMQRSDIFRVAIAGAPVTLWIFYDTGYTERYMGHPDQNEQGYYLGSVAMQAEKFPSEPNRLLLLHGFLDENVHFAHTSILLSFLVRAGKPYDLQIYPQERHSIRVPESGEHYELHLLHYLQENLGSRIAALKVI
T3 sequence (Q86TI2 whole entry): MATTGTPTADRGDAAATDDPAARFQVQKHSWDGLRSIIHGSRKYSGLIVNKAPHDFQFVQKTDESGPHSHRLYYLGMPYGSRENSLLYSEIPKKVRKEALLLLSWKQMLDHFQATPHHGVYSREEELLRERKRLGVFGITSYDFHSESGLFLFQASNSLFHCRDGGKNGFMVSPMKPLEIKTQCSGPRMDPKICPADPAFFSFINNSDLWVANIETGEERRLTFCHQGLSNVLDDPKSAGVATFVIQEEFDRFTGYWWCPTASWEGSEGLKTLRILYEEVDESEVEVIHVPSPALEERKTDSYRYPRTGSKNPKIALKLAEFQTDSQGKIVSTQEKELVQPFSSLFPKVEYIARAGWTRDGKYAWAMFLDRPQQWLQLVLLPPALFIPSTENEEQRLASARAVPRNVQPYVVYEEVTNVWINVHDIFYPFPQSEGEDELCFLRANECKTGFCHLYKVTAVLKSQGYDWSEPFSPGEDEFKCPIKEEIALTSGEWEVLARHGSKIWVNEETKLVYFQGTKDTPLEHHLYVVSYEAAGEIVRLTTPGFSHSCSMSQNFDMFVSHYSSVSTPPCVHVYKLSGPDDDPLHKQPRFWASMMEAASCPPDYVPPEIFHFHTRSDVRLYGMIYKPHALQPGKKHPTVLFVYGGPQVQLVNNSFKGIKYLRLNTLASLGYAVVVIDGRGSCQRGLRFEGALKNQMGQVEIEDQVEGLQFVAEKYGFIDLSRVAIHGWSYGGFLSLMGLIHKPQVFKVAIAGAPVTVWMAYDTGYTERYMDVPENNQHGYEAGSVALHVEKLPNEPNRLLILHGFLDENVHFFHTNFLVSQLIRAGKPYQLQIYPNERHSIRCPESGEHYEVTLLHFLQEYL

| SMILES | Selectivity Ratios DPP-VII (human DPP-VII) | Selectivity Ratios DPP-VIII (human DPP-VIII) | Selectivity Ratios DPP-IX (human DPP-IX) | Selectivity Ratios FAP (human FAP) |
| --- | --- | --- | --- | --- |
| Cl.N#C[C@@H]1CS[C@H]2C[C@](N)(CC3CCCCC3)C(=O)N12 [Compound 29, 6-Amino-6-cyclohexylmethyl-5-oxo-hexahydro-pyrrolo[2,1-b]thiazole-3-carbonitrile hydrochloride] | A (A ≦ 10) | A (A ≦ 10) | A (A ≦ 10) | C (C ≧ 100) |
| Cl.N#C[C@@H]1CS[C@H]2C[C@@H](N)C(=O)N12 [Compound 7, 6-Amino-5-oxo-hexahydro-pyrrolo[2,1-b]thiazole-3-carbonitrile] | C (C ≧ 100) | B (10 < B < 100) | A (A ≦ 10) | C (C ≧ 100) |
| Cl.N#C[C@@H]1CS[C@H]2C[C@](N)(C3CCCC3)C(=O)N12 [Compound 23, 6-Amino-6-cyclopentyl-5-oxo-hexahydro-pyrrolo[2,1-b]thiazole-3-carbonitrile hydrochloride] | B (10 < B < 100) | A (A ≦ 10) | A (A ≦ 10) | C (C ≧ 100) |
| CC(C)[C@@]1(N)C[C@@H]2SC[C@@H](C#N)N2C1=O.Cl [Compound 22, 6-Amino-6-isopropyl-5-oxo-hexahydro-pyrrolo[2,1-b]thiazole-3-carbonitrile hydrochloride] | C (C ≧ 100) | B (10 < B < 100) | A (A ≦ 10) | C (C ≧ 100) |
| Cl.N#C[C@@H]1CS[C@H]2C[C@@](N)(c3ccccc3)C(=O)N12 [Compound 34] | C (C ≧ 100) | B (10 < B < 100) | A (A ≦ 10) | C (C ≧ 100) |
| CC(C)C[C@@]1(N)C[C@@H]2SC[C@@H](C#N)N2C1=O.Cl [Compound 25, 6-Amino-6-isobutyl-5-oxo-hexahydro-pyrrolo[2,1-b]thiazole-3-carbonitrile hydrochloride] | A (A ≦ 10) | B (10 < B < 100) | A (A ≦ 10) | C (C ≧ 100) |
| Cl.N#C[C@@H]1CS[C@H]2C[C@@](N)(C3CCCC3)C(=O)N12 [Compound 33] | B (10 < B < 100) | B (10 < B < 100) | A (A ≦ 10) | B (10 < B < 100) |
| Cl.N#C[C@@H]1CS[C@H]2C[C@](N)(CCc3ccccc3)C(=O)N12 [Compound 27, 6-Amino-5-oxo-6-phenethyl-hexahydro-pyrrolo[2,1-b]thiazole-3-carbonitrile hydrochloride] | A (A ≦ 10) | A (A ≦ 10) | A (A ≦ 10) | B (10 < B < 100) |
| Cl.N#C[C@@H]1CS[C@H]2C[C@](N)(c3ccccc3)C(=O)N12 [Compound 31, 6-Amino-5-oxo-6-phenyl-hexahydro-pyrrolo[2,1-b]thiazole-3-carbonitrile hydrochloride] | C (C ≧ 100) | C (C ≧ 100) | B (10 < B < 100) | C (C ≧ 100) |
| CC[C@@]1(N)C[C@@H]2SC[C@@H](C#N)N2C1=O.Cl [Compound 21, 6-Amino-6-ethyl-5-oxo-hexahydro-pyrrolo[2,1-b]thiazole-3-carbonitrile hydrochloride] | C (C ≧ 100) | B (10 < B < 100) | A (A ≦ 10) | C (C ≧ 100) |
| N#CC1CSC2CC(N)(Cc3ccccc3)C(=O)N12 (centres unmarked) [Compound 28, 6-Amino-6-benzyl-5-oxo-hexahydro-pyrrolo[2,1-b]thiazole-3-carbonitrile hydrochloride] | B (10 < B < 100) | B (10 < B < 100) | B (10 < B < 100) | B (10 < B < 100) |
| Cl.N#C[C@@H]1CS[C@H]2C[C@](N)(C3CCCCC3)C(=O)N12 [Compound 24, 6-Amino-6-cyclohexyl-5-oxo-hexahydro-pyrrolo[2,1-b]thiazole-3-carbonitrile hydrochloride] | B (10 < B < 100) | A (A ≦ 10) | A (A ≦ 10) | C (C ≧ 100) |
| CC[C@H](C)[C@@]1(N)C[C@@H]2SC[C@@H](C#N)N2C1=O.Cl [Compound 26, 6-Amino-6-sec-butyl-5-oxo-hexahydro-pyrrolo[2,1-b]thiazole-3-carbonitrile hydrochloride] | B (10 < B < 100) | B (10 < B < 100) | A (A ≦ 10) | C (C ≧ 100) |
| Cl.N#C[C@@H]1CS[C@H]2C[C@](N)(c3ccc(F)cc3)C(=O)N12 [Compound 30, 6-Amino-6-(4-fluoro-phenyl)-5-oxo-hexahydro-pyrrolo[2,1-b]thiazole-3-carbonitrile hydrochloride] | B (10 < B < 100) | B (10 < B < 100) | A (A ≦ 10) | B (10 < B < 100) |
